ChEMBL document CHEMBL1201862, “PubChem BioAssay data set” (2004)
Activity calls are given as the source filed them.

How the values were obtained:
Cytochrome P450 2D6 = Cytochrome P450 2D6 (Homo sapiens, UniProt P10635);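 note: CYP2D6 member of a cytochrome P450 panel assay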
[1] = molecular target: T1, Heat shock factor protein 1 (Mus musculus, UniProt P38532); test: HSF1 potentiators in luciferase reporter cells, confirmation, cell-based, NIH3T3, luminescence, dose retest (AID 435004); type: functional;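 note: stress induced by proteasome inhibitor MG132 added 30 min after compound; luciferase reporter driven by HSF1 response element in NIH3T3 cells; actives raise luminescence as potentiators of the MG132 stress response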
T1 sequence (P38532 whole entry): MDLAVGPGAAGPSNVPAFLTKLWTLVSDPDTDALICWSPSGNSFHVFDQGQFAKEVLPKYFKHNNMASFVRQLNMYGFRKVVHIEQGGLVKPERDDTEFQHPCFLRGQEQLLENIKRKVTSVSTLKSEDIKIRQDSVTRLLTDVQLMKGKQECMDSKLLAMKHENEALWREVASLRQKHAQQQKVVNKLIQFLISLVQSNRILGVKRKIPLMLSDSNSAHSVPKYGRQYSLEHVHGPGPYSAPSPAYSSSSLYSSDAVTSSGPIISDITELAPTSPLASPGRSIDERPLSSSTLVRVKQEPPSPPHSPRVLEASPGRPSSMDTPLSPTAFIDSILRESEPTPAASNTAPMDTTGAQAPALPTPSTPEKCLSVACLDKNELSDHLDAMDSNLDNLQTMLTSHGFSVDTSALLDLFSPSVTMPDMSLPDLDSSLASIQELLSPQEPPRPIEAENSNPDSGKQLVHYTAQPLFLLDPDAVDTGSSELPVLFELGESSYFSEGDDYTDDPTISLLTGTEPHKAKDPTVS

[2] = NIH-3T3 fibroblast cytotoxicity, dose response, cytotoxicity control, cell-based, fluorescence, Alamar Blue, secondary assay (AID 2327); type: functional;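 note: NIH-3T3 mouse fibroblasts cultured with fluconazole at 8 µg/mL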
[3] = C. albicans growth with fluconazole, confirmation, fluorescence, retest (AID 2467); type: functional, cell-based
Cytochrome P450 3A4 = Cytochrome P450 3A4 (Homo sapiens, UniProt P08684);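 note: CYP3A4 tested as one member of a cytochrome P450 panel screen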
Cytochrome P450 3A4, sequence (P08684 whole entry): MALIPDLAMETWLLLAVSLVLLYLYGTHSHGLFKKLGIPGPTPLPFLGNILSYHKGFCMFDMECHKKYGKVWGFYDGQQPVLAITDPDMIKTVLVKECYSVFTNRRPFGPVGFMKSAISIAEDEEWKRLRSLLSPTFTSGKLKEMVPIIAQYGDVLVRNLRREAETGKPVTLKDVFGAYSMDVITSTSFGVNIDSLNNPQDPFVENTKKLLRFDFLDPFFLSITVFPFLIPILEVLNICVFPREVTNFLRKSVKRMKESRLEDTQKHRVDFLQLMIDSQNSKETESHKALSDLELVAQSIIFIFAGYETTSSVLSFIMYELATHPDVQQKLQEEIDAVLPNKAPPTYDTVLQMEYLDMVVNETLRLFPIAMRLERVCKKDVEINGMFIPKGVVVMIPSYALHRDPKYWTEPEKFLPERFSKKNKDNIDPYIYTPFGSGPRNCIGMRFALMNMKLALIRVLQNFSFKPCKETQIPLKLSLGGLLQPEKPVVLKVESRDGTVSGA

Cytochrome P450 2C9 = Cytochrome P450 2C9 (Homo sapiens, UniProt P11712)
Cytochrome P450 2C9, sequence (P11712 whole entry): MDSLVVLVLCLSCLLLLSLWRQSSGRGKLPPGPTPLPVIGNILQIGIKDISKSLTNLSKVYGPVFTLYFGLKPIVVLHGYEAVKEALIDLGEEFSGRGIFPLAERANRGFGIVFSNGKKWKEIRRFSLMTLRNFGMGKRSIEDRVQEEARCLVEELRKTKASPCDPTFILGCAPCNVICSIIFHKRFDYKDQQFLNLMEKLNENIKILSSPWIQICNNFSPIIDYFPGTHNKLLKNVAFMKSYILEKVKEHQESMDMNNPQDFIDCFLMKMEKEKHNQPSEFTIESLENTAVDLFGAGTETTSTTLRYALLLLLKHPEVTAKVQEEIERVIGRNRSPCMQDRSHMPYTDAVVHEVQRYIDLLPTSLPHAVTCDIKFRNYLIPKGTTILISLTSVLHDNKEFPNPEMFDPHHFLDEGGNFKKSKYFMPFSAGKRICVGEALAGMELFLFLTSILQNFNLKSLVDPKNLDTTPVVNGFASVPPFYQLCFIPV

Cytochrome P450 2C19 = Cytochrome P450 2C19 (Homo sapiens, UniProt P33261); test: Cytochrome panel assay with activity outcomes. Panel member name: p450-cyp2c19 Compounds with AC50 equal or less than 10 uM are considered active; type: functional; settings: read-out: AC50
Cytochrome P450 2C19, sequence (P33261 whole entry): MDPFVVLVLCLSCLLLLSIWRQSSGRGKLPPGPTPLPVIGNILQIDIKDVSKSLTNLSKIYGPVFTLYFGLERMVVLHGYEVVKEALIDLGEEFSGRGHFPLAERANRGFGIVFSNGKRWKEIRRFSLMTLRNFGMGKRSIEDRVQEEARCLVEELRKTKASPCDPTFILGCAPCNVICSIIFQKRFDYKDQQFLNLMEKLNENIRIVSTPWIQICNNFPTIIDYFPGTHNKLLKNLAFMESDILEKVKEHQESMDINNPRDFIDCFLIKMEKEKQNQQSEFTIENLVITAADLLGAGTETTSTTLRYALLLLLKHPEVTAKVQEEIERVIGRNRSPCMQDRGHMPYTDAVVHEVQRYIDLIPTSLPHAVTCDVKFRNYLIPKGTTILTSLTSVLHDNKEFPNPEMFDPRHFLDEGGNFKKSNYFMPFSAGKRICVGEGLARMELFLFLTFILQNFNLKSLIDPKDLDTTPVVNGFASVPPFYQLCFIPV

INS1 = test: beta cell apoptosis inhibitors, cytokine rescue, dose response, luminescence, retest (AID 449756); type: functional, cell-based; settings: Rattus norvegicus;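 note: cell death triggered by IL-1 beta plus TNF-alpha plus IFN-gamma mixture; protective hits raise ATP signal compared with cytokine alone wells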
[4] = inhibitors of intracellular T. cruzi replication, confirmation, NIH3T3 host cells, beta-gal luminescence (AID 2044); type: functional, cell-based;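 note: intracellular parasites grown in NIH/3T3 mouse fibroblasts as host cells; luminescent beta-galactosidase reporter signal from transgenic T. cruzi replicating inside host cells; inhibitors lower the luminescence signal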
[5] = cytotoxicity toward NIH3T3 fibroblasts, dose response, counter-screen, cell-based, ATP luminescence, mouse fibroblasts (AID 2010); type: functional;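 note: cells exposed to compound for about 90 hours before reading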
Protein RecA = molecular target: T2, Protein RecA (Mycobacterium tuberculosis, UniProt P9WHJ3); test: Fluorescence Cell-Free Homogeneous Dose Retest to Identify Inhibitors of RecA-Intein Splicing Activity. [Related pubchem assays (depositor defined):AID2097, AID2223, AID489010, AID492950]; type: functional
T2 sequence (P9WHJ3 whole entry): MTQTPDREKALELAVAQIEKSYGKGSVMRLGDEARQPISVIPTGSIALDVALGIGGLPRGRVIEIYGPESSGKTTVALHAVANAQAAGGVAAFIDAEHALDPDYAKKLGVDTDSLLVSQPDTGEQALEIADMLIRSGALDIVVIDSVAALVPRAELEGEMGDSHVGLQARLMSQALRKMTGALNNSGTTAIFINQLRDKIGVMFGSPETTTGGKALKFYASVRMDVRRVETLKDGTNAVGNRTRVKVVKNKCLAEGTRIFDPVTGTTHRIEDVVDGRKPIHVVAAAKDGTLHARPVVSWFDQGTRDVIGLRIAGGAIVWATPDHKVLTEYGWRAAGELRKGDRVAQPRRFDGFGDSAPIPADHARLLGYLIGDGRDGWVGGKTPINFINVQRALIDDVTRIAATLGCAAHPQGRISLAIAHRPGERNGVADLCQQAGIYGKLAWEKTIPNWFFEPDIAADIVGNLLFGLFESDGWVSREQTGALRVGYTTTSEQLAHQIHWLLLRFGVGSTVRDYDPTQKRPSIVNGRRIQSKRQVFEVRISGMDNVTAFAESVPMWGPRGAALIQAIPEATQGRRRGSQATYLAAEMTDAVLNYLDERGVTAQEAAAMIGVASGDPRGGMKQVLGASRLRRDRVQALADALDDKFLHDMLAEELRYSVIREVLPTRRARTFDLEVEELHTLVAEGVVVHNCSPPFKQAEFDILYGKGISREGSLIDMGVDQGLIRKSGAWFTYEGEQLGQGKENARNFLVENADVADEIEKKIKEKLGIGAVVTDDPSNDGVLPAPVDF

[6] = molecular target: T3, Replicative DNA helicase DnaB (Mycobacterium tuberculosis, UniProt P9WMR3); test: DnaB intein splicing inhibitors, dose response, biochemical, cell-free fluorescence (AID 449749); type: functional
T3 sequence (P9WMR3 whole entry): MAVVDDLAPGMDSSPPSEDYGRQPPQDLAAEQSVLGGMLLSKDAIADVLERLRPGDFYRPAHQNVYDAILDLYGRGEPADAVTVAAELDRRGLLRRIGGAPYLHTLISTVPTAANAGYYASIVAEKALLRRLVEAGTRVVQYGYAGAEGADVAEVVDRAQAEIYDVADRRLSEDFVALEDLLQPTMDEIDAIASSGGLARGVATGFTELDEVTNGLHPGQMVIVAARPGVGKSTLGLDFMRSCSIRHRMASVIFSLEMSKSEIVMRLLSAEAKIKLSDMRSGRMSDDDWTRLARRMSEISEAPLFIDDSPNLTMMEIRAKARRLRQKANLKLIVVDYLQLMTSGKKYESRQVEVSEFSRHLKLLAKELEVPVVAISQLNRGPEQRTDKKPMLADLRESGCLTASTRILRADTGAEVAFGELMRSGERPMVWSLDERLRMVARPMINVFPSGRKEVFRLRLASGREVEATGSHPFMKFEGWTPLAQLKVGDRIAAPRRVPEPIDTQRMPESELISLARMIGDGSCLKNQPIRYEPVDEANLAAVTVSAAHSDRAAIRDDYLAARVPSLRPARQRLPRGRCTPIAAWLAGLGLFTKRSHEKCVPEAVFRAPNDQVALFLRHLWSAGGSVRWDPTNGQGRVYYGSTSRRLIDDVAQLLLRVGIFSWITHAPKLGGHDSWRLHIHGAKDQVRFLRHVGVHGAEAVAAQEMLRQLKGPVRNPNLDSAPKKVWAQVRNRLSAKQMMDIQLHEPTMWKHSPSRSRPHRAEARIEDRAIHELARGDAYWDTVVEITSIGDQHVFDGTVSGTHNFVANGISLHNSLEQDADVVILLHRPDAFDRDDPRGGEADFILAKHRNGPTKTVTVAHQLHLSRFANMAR

Cytochrome P450 2D6, sequence (P10635 whole entry): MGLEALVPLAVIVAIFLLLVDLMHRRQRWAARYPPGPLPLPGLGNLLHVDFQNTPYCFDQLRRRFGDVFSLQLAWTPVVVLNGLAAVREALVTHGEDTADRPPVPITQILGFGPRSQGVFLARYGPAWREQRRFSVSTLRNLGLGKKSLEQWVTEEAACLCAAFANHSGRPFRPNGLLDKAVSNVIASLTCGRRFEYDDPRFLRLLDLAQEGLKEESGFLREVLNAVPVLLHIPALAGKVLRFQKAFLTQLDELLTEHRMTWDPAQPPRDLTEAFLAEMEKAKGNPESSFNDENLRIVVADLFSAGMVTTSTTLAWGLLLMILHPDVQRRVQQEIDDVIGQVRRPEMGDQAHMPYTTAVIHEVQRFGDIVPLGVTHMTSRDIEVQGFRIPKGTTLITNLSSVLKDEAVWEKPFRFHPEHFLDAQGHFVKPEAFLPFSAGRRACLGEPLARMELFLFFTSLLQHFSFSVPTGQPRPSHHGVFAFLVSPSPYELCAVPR

CCOc1ccc(NC(=O)N(C2CCCCC2)C(C)c2ccncc2)cc1 (configuration not stated)
AC50 (Cytochrome P450 2D6): 17.8 µM (inconclusive)

Cc1ccc[n+](CC(=O)Nc2ccc([N+](=O)[O-])cc2Cl)c1
EC50 [1]: > 260 µM (inactive)

C=CCn1c(SCC)nc2sc3c(c2c1=O)CCc1ccccc1-3
AC50 (Cytochrome P450 2D6): 11.2 µM (inconclusive)

CCOC(=O)CNC(c1ccccc1)c1cc(Br)ccc1NC(=O)CCN1CCOCC1 (configuration not stated)
EC50 [2]: 39.4 µM (active)
EC50 [3]: 3.44 µM (active)

COC(=O)[C@@H]1C[C@H]1[C@@H](NC(=O)c1cc(C)on1)c1ccccc1
AC50 (Cytochrome P450 3A4): 31.6 µM (inconclusive)
AC50 (Cytochrome P450 2C9): 39.8 µM (inconclusive)

CCc1nc(SCC(=O)c2ccc(Cl)s2)c2oc3ccccc3c2n1
EC50 [1]: 43.5 µM (active)

Cc1cc(O)c2n(Cc3ccccc3Cl)nc[n+]2n1
EC50 [1]: > 260 µM (inactive)

COCCNC(=O)c1ccc2c(c1)ncn2-c1ccc(F)c(F)c1
AC50 (Cytochrome P450 2C19): 28.2 µM (inconclusive)
AC50 (Cytochrome P450 2C9): 17.8 µM (inconclusive)

O=C(Oc1cccc2cccnc12)c1cccc(N2C(=O)C3C4CCC(C4)C3C2=O)c1 (configuration not stated)
AC50 (INS1): 16.2 µM (active)

COc1ncc2nc(CCc3ccccc3)c(=O)n(-c3ccccc3)c2n1
AC50 (Cytochrome P450 2C9): 25.1 µM (inconclusive)

Cc1nc2c(n1C1CCCCC1)C(=O)c1ccccc1C2=O
AC50 (Cytochrome P450 2D6): 22.4 µM (inconclusive)

Cc1nn(C(CC(=O)O)C(=O)O)c(C)c1Br (configuration not stated)
EC50 [1]: > 260 µM (inactive)

COc1ccc(NC(=O)c2cc(C)n(Cc3cccs3)c2C)cc1
EC50 [1]: 106 µM (inconclusive)

CCC(C)c1ccc(Nc2ncccc2C#N)cc1 (configuration not stated)
AC50 (Cytochrome P450 2D6): 28.2 µM (inconclusive)

Cc1cc(=O)oc(C)c1C(=O)NCc1cccnc1
AC50 (Cytochrome P450 3A4): 25.1 µM (inconclusive)
AC50 (Cytochrome P450 2C9): 3.16 µM (inconclusive)

CC(C)(C)c1ccc(NNC(=O)C2CCC2)cc1
AC50 (INS1): 7.4 µM (active)

S=C(NCCSCc1c(Cl)cccc1Cl)Nc1ccccc1
EC50 [4]: 2.94 µM (active)
EC50 [5]: > 60 µM (not active)
AC50 (Cytochrome P450 2C9): 10 µM (inconclusive)
EC50 [2]: > 160 µM (inactive)

COc1ncc2nc(CCc3ccccc3)c(=O)n(C)c2n1
AC50 (Cytochrome P450 2D6): 20 µM (inconclusive)
AC50 (Cytochrome P450 2C19): 25.1 µM (inconclusive)

COc1cc(/C=C/C(=O)O)cc(S(=O)(=O)NCCCO)c1OC
AC50 (Cytochrome P450 2C9): 10 µM (inconclusive)

c1ccc2c(CC3NCCN3)cccc2c1
AC50 (Cytochrome P450 2D6): 3.98 µM (inconclusive)

Cc1ccc(C(C)(O)CS(=O)(=O)Cc2ccccc2Cl)cc1 (configuration not stated)
EC50 [1]: > 260 µM (inactive)

Cc1ccc(O)c(-c2cc3ccccc3[nH]2)c1
EC50 [2]: > 160 µM (inactive)
EC50 [3]: > 38 µM (not active)

Cc1cc(C)n(-c2ccc(C(=O)Nc3cc(C(F)(F)F)ccc3N3CCOCC3)cc2)n1
AC50 (Cytochrome P450 3A4): 14.1 µM (inconclusive)
AC50 (Cytochrome P450 2C19): 10 µM (inconclusive)

Cc1cccc(-c2cc3c(nn2)-c2ccccc2C3=O)c1
EC50 [1]: 0.897 µM (active)

c1csc(CN2CCCC3(CCNCC3)C2)n1
AC50 (Cytochrome P450 2C9): 31.6 µM (inconclusive)

NC(=O)CC12CC3CC(C1)CC(CC(N)=O)(C3)C2
EC50 [2]: > 160 µM (inactive)
EC50 [3]: > 38 µM (not active)

CC(=O)N1N=C(c2ccccc2)CC1c1ccccc1[N+](=O)[O-] (configuration not stated)
EC50 [1]: > 260 µM (inactive)

CCN(c1ccccc1)S(=O)(=O)c1cc(NC(=O)Nc2ccccc2C#N)ccc1Cl
EC50 [1]: > 260 µM (inactive)

CCCc1cc2c(n1Cc1cc(F)cc(F)c1)C(C)C1CN(C(=O)c3ccccc3)C(C)(C(=O)OC)C21 (configuration not stated)
AC50 (Cytochrome P450 2D6): 25.1 µM (inconclusive)
AC50 (Cytochrome P450 2C19): 39.8 µM (inconclusive)

Cc1nc2sccc2c(=O)n1-c1cccc(Cl)c1
AC50 (Cytochrome P450 2D6): 12.6 µM (inconclusive)
AC50 (Cytochrome P450 2C9): 20 µM (inconclusive)

CCOC(=O)c1sc(C)c(C(=O)NCC(C)(C)CN(C)C)c1N
AC50 (Cytochrome P450 2C9): 39.8 µM (inconclusive)

CCSc1nnc(NC(=O)c2cccnc2Cl)s1
EC50 [1]: > 260 µM (inactive)

COc1cc2c(cc1OC)C(C(=O)Nc1cccc(C)n1)C(c1cccnc1)N(C)C2=O (configuration not stated)
AC50 (Cytochrome P450 3A4): 15.8 µM (inconclusive)
AC50 (Cytochrome P450 2C9): 0.00562 µM (inconclusive)

CCCn1nnnc1-c1cccc(Cl)c1
AC50 (Cytochrome P450 2C9): 1.26 µM (inconclusive)

COc1ccc(/C=C2\N=C(SC)N(C)C2=O)cc1
AC50 (Cytochrome P450 3A4): 28.2 µM (inconclusive)

CNc1ncc(C(=O)c2ccccc2)s1
AC50 (Cytochrome P450 3A4): 28.2 µM (inconclusive)
AC50 (Cytochrome P450 2C19): 2.24 µM (inconclusive)
AC50 (Cytochrome P450 2C9): 7.94 µM (inconclusive)

COc1cc(/C=N/NC(=O)c2cccs2)ccc1OCc1ccccc1
AC50 (Cytochrome P450 3A4): 15.8 µM (inconclusive)

CCNC(=O)NC(=O)CSc1nc2ccccc2n1CC(C)C
AC50 (Cytochrome P450 2D6): 14.1 µM (inconclusive)
AC50 (Cytochrome P450 2C9): 20 µM (inconclusive)

CC(=O)NC(c1ccco1)c1cc(F)c2cccnc2c1O (configuration not stated)
AC50 (INS1): 2.71 µM (active)

CS/C(=C\[N+](=O)[O-])Nc1ccc(Cl)cc1
EC50 (Protein RecA): 12.7 µM (active)
EC50 [2]: > 150 µM (inconclusive)
AC50 [6]: 23.2 µM (active)
EC50 [3]: > 38 µM (not active)

Cc1noc(C)c1CS(=O)(=O)c1ccc(Br)cc1
AC50 (Cytochrome P450 2C9): 31.6 µM (inconclusive)

CCn1c(C)c(/C=N/Nc2nc3ccccc3s2)c2ccccc21
EC50 [4]: 2.5 µM (active)
AC50 (Cytochrome P450 2D6): 14.1 µM (inconclusive)
EC50 [5]: > 60 µM (not active)

NCCc1c[nH]c2ccc(OC(=O)C(=O)O)cc12
AC50 (Cytochrome P450 2C19): 1.58 µM (inconclusive)
AC50 (Cytochrome P450 2C9): 3.98 µM (inconclusive)

O=C(COc1ccccc1)Nc1cc(C(F)(F)F)ccc1N1CCCC1
AC50 (Cytochrome P450 2D6): 17.8 µM (inconclusive)

COc1ccc(COC(=O)N/N=C2/C[C@@H](O)[C@@H](O)[C@@H]3[C@@H]4C(=O)N([C@@H](C)c5ccccc5)C(=O)[C@H]4CC[C@@H]23)cc1
AC50 (Cytochrome P450 3A4): 3.98 µM (inconclusive)

Oc1ccc2ccccc2c1/C=N\Cc1c(O)ccc2ccccc12
AC50 (Cytochrome P450 2D6): 3.98 µM (inconclusive)

CCOC(=O)C1C(=O)NC(C)C1c1ccccc1 (configuration not stated)
AC50 (Cytochrome P450 2D6): 0.0501 µM (inconclusive)
AC50 (Cytochrome P450 2C19): 31.6 µM (inconclusive)

Cc1ccc(OCc2cc(C(=O)N(C)Cc3cc(C4CC4)[nH]n3)no2)cc1C
AC50 (INS1): > 260 µM (inactive)
